Assay results taken from US8247377B2, “Non-steroidal glucocorticoid inhibitors and their use in treating inflammation, allergy and auto-immune conditions” (Glaxo Group Limited, priority 2006, dated 2012).

The compounds below were run against T1, glucocorticoid receptor (Homo sapiens, UniProt P04150) (assay: Glucocorticoid receptor binding assay (fluorescence polarisation)). Details: competition with Alexa 555 fluorescently-labelled dexamethasone derivative, full length glucocorticoid receptor; read-out: glucocorticoid binding pIC50 (converted).
T1 construct: a partially purified full length glucocorticoid receptor
T1 sequence (P04150 1-777): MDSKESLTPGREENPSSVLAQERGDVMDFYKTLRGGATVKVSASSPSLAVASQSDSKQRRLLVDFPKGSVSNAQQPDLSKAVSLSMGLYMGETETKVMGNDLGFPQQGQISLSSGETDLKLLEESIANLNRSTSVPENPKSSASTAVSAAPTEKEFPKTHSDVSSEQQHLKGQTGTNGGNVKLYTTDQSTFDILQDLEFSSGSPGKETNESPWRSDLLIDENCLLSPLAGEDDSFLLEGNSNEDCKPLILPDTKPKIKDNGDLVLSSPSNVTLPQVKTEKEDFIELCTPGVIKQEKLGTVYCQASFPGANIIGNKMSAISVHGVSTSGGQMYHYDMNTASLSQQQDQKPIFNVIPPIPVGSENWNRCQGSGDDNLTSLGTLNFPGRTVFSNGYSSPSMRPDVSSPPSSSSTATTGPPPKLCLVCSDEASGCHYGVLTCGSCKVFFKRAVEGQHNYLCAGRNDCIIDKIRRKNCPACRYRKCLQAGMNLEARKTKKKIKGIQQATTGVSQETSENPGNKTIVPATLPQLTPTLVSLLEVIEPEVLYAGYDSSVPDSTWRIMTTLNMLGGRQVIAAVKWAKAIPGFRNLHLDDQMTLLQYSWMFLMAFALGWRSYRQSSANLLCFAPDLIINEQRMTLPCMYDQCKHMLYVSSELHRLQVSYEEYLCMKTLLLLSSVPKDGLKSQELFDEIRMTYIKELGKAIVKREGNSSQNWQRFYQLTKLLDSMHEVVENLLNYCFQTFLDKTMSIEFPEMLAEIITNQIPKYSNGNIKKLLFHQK
Method in brief: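 Compounds in DMSO incubated with fluorescent dexamethasone and partially purified full-length GR plus stabilising buffer components, 2 hrs at room temperature in the dark. Displacement read as decrease in fluorescence polarisation; pIC50 estimated from dose-response curves.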

Structure (SMILES) | IC50
Nc1c(C(=O)NCC(O)(CNC(=O)c2c(Br)cccc2Br)C(F)(F)F)cnn1-c1ccc(F)cc1 (single isomer, unassigned) [Example 11 Enantiomer 1, 5-Amino-N-[2-({[(2,6-dibromophenyl)carbonyl]amino}methyl)-3,3,3-trifluoro-2-hydroxypropyl]-1-(4-fluorophenyl)-1H-pyrazole-4-carboxamide] | ≤ 0.316 µM
Nc1c(C(=O)NCC(O)(CNC(=O)c2c(Cl)cccc2Br)C(F)(F)F)cnn1-c1ccc(F)cc1 (single isomer, unassigned) [Example 12 Enantiomer 1, 5-Amino-N-[2-({[(2-bromo-6-chlorophenyl)carbonyl]amino}methyl)-3,3,3-trifluoro-2-hydroxypropyl]-1-(4-fluorophenyl)-1H-pyrazole-4-carboxamide] | ≤ 0.316 µM
Nc1c(C(=O)NCC(O)(CNC(=O)c2c(F)cccc2Br)C(F)(F)F)cnn1-c1ccc(F)cc1 (single isomer, unassigned) [Example 13 Enantiomer 1, 5-Amino-N-[2-({[(2-bromo-6-fluorophenyl)carbonyl]amino}methyl)-3,3,3-trifluoro-2-hydroxypropyl]-1-(4-fluorophenyl)-1H-pyrazole-4-carboxamide] | ≤ 0.316 µM
Nc1c(C(=O)NCC(O)(CNC(=O)c2c(Cl)cccc2OC(F)F)C(F)(F)F)cnn1-c1ccc(F)cc1 (single isomer, unassigned) [Example 14 Enantiomer 1, 5-Amino-N-(2-{[({2-chloro-6-[(difluoromethyl)oxy]phenyl}carbonyl)amino]methyl}-3,3,3-trifluoro-2-hydroxypropyl)-1-(4-fluorophenyl)-1H-pyrazole-4-carboxamide] | ≤ 0.316 µM
Nc1c(C(=O)NCC(O)(CNC(=O)c2c(C(F)F)cccc2C(F)F)C(F)(F)F)cnn1-c1ccc(F)cc1 (single isomer, unassigned) [Example 43 Enantiomer 1, 5-Amino-N-{2-[({[2,6-bis(difluoromethyl)phenyl]carbonyl}amino)methyl]-3,3,3-trifluoro-2-hydroxypropyl}-1-(4-fluorophenyl)-1H-pyrazole-4-carboxamide] | ≤ 0.316 µM
Nc1c(C(=O)NCC(O)(CNC(=O)c2c(Cl)cccc2C(F)(F)F)C(F)(F)F)cnn1-c1ccc(F)cc1 (single isomer, unassigned) [Example 44 Enantiomer 1, 5-Amino-N-{2-[({[2-chloro-6-(trifluoromethyl)phenyl]carbonyl}amino)methyl]-3,3,3-trifluoro-2-hydroxypropyl}-1-(4-fluorophenyl)-1H-pyrazole-4-carboxamide] | ≤ 0.316 µM
Nc1c(C(=O)NCC(O)(CNC(=O)c2c(Br)cccc2C(F)(F)F)C(F)(F)F)cnn1-c1ccc(F)cc1 (single isomer, unassigned) [Example 45 Enantiomer 1, 5-Amino-N-{2-[({[2-bromo-6-(trifluoromethyl)phenyl]carbonyl}amino)methyl]-3,3,3-trifluoro-2-hydroxypropyl}-1-(4-fluorophenyl)-1H-pyrazole-4-carboxamide] | ≤ 0.316 µM
Nc1c(C(=O)NCC(O)(CNC(=O)c2c(F)cccc2OC(F)F)C(F)(F)F)cnn1-c1ccc(F)cc1 (single isomer, unassigned) [Example 48 Enantiomer 1, 5-Amino-N-(2-{[({2-[(difluoromethyl)oxy]-6-fluorophenyl}carbonyl)amino]methyl}-3,3,3-trifluoro-2-hydroxypropyl)-1-(4-fluorophenyl)-1H-pyrazole-4-carboxamide] | ≤ 0.316 µM
